Measured values published in patent US20240293370A1, “USE OF COMPOUNDS IN INHIBITING OR KILLING MITES AND TREATING XEROPHTHALMIA” (Precvision Biotechnologies LTD., priority 2021, published 2024).
Structures can show the parent of a compound that is named as a salt.

System: Demodex
Experiment: Acaricidal experiment: Demodex culture in vitro, survival time of mites
Conditions: adult Demodex, 20° C., 96% humidity
Experimental: This study strictly followed the ethical principles of the Declaration of Helsinki, and Ethical Guidelines for Biomedical Research Involving Human Subjects. In this study, Demodex was collected from patients diagnosed with ocular Demodex infection. Those meeting the inclusion criteria would be enrolled after an informed conversation and signing an informed consent form.
Demodex detection was performed according to the conventional eyelash microscopic examination method. 3 eyelashes were extracted from each eyelid, and a total of 12 eyelashes were extracted. The extracted eyelashes were immediately placed on a glass slide, and one piece of each three eyelashes was placed under an ordinary light microscope for observation. Demodex at all stages were counted and classified according to morphology (specific criteria were: Demodex brevis at a head-to-body ratio of 1:1 and Demodex folliculorum at a head-to-body ratio of 1:3 to 1:4). Only adults that were fully exposed to the field of view were taken as subjects (larvae and eggs were not considered as subjects since they were more fragile in early life).
Based on the above detection of Demodex, 50 μl of different solutions were added to each slide, and the survival of the worms was observed every 1 hour. The death was judged by observing whether the worms were active (body, limbs, or the like) under a microscope. Two skilled Demodex-related experimenters observed and judged separately during the experiment. If the judgment results were different, the third skilled experimenter was asked to make an independent judgment. The culture in vitro was performed in a climate chamber at 20° C. and 96% humidity. Slides were transported in a humid chamber under observation and the solution was added appropriately to ensure high humidity before vacuoles appeared on solution evaporation.

N[C@H]1C[C@@H]1c1ccccc1 [Hydrochloride salt of V-C]
Average survival time of mites (concentration 1 mg/mL in 0.9% NaCl solution): 7.44 ± 6.07 h | Average survival time of mites (concentration 3 mg/mL in 0.9% NaCl solution): 5.66 ± 0.91 h | Average survival time of mites (concentration 10 mg/mL in 0.9% NaCl solution): 2.89 ± 1.08 h | Average survival time of mites (concentration 30 mg/mL in 0.9% NaCl solution): 2.24 ± 1.32 h
